Experiments:
[1] = system: A. baumannii ATCC 19606; assay: Sensitization to rifampin: growth inhibition around wells on LB plates containing rifampin; type: cell-based, Acinetobacter baumannii; settings: 4 μg
[2] = system: Acinetobacter baumannii ATCC 19606; assay: Growth inhibition around wells on LB agar plates; type: cell-based; settings: A. baumannii ATCC 19606
Description: (§1) From an overnight-grown culture of IH3080 on LB agar, a suspension of approx. 10^8 cells/ml was prepared in 0.9% NaCl. Aliquots of this suspension were then pipetted on the agar plates and the plates were gently shaken to spread the suspension evenly on the entire surface of the plate. Thereafter, the unabsorbed part of the suspension was removed by using a Pasteur pipette. After the surface had dried, small wells (diameter, 2 mm) were drilled on the plates (five wells per plate) by using a sterile sharp-edged narrow metal tube, single-use pipette tip, and vacuum suction. An alternative method used a swab to spread the inoculum. […] Controls included 0.9% NaCl solution without the compound to be tested. The plates were then incubated for 18 h at 37° C. whereafter the diameters of growth inhibition zones around each well were measured; the diameter of the well itself was not reduced. Finally, the diameters were converted to surface areas of growth inhibition (in square mm).
(§2) Direct antibacterial activity of sixteen NAB compounds against Acinetobacter baumannii ATCC 19606 and Pseudomonas aeruginosa ATCC 27853 was tested by using the susceptibility determination method described in Example 2. Five compounds (NAB7062, NAB734, NAB737, NAB739, and NAB740) had very notable activity against A. baumannii. […] The antibacterial activity of NAB739 and NAB740 were as strong as or even stronger than that of polymyxin B.

[3] = system: E. coli IH3080; assay: Sensitization to rifampin: growth inhibition around wells on LB plates containing rifampin; type: cell-based, Escherichia coli; settings: 4 μg of compound
Description: (§3) From an overnight-grown culture of IH3080 on LB agar, a suspension of approx. 10^8 cells/ml was prepared in 0.9% NaCl. Aliquots of this suspension were then pipetted on the agar plates and the plates were gently shaken to spread the suspension evenly on the entire surface of the plate. Thereafter, the unabsorbed part of the suspension was removed by using a Pasteur pipette. After the surface had dried, small wells (diameter, 2 mm) were drilled on the plates (five wells per plate) by using a sterile sharp-edged narrow metal tube, single-use pipette tip, and vacuum suction. An alternative method used a swab to spread the inoculum. Samples (4 μl and 10 μl) of the peptide solution in 0.9% NaCl (at concentrations of 1 μg/ml and 0.1 μg/ml) were then pipetted to the wells and the sample fluids were allowed to absorb. Controls included 0.9% NaCl solution without the compound to be tested. The plates were then incubated for 18 h at 37° C. whereafter the diameters of growth inhibition zones around each well were measured; the diameter of the well itself was not reduced. Finally, the diameters were converted to surface areas of growth inhibition (in square mm).

[4] = system: Ps. aeruginosa ATCC 27853; assay: as above; type: cell-based, Pseudomonas aeruginosa; settings: 4 μg
[5] = system: Pseudomonas aeruginosa ATCC 27853; assay: Growth inhibition around wells on LB agar plates; type: cell-based; settings: Ps. aeruginosa ATCC 27853
Description: as §3, §2

[6] = system: E. coli IH3080; assay: Growth inhibition around wells on LB agar plates; type: cell-based, Escherichia coli
Description: Peptides synthesized in Example 1, all carrying at least two (2) but not more than three (3) positive charges, were studied for their ability to inhibit the growth of E. coli. This was tested employing LB agar (LB Agar Lennox, Difco, BD, Sparks, Md., U.S.A) plates. The indicator organism E. coli IH3080 (K1:O018) was an encapsulated strain originally isolated from a neonate suffering from meningitis (Vaara et al. 1984) and obtained from National Public Health Institute, Helsinki, Finland.
as §1

Row | Substance | growth inhibition around a well in the presence of rifampin ([1]; rifampin 0 μg/ml) | growth inhibition around a well in the presence of rifampin ([1]; rifampin 0.1 μg/ml) | growth inhibition around a well in the presence of rifampin ([1]; rifampin 0.3 μg/ml) | growth inhibition around a well ([2]; 4 μg) | growth inhibition around a well ([2]; 10 μg) | growth inhibition around a well in the presence of rifampin ([3]; rifampin 0 μg/ml) | growth inhibition around a well in the presence of rifampin ([3]; rifampin 0.1 μg/ml) | growth inhibition around a well in the presence of rifampin ([3]; rifampin 1.0 μg/ml) | growth inhibition around a well in the presence of rifampin ([4]; rifampin 0 μg/ml) | growth inhibition around a well in the presence of rifampin ([4]; rifampin 0.1 μg/ml) | growth inhibition around a well in the presence of rifampin ([4]; rifampin 0.3 μg/ml) | growth inhibition around a well ([5]; 4 μg) | growth inhibition around a well ([5]; 10 μg) | growth inhibition around a well ([6]; 4 μg of compound per well) | growth inhibition around a well ([6]; 10 μg of compound per well)
1 | OA-Thr-Abu-cy[Dab-Dab-DPhe-Leu-Dab-Dab-Leu-] [NAB 719] | 0 square millimeters | 154 square millimeters | 133 square millimeters | 0 square millimeters | 0 square millimeters | 7 square millimeters | 79 square millimeters | 95 square millimeters | 0 square millimeters | 0 square millimeters | 7 square millimeters | 0 square millimeters | 0 square millimeters | 7 square millimeters | 50 square millimeters
2 | DA-Thr-Abu-cy[Dab-Dab-DPhe-Leu-Dab-Dab-Thr-] [NAB 7062] | 13 square millimeters | 50 square millimeters | 95 square millimeters | 13 square millimeters | 38 square millimeters | 50 square millimeters | – | 104 square millimeters | 0 square millimeters | 0 square millimeters | 7 square millimeters | 0 square millimeters | 0 square millimeters | – | 99 square millimeters
3 | OA-Thr-Asn-cy[Dab-Dab-DPhe-Leu-Dab-Dab-Thr-] [NAB 746] | 0 square millimeters | 64 square millimeters | 95 square millimeters | 0 square millimeters | 0 square millimeters | 0 square millimeters | 79 square millimeters | 95 square millimeters | 0 square millimeters | 7 square millimeters | 0 square millimeters | 0 square millimeters | 20 square millimeters | 0 square millimeters | 13 square millimeters
4 | OA-Thr-Dab-cy[Dab-Dab-DPhe-Leu-Dab-Abu-Thr-] [NAB 717] | 0 square millimeters | 0 square millimeters | 50 square millimeters | 0 square millimeters | 0 square millimeters | 0 square millimeters | 71 square millimeters | 95 square millimeters | 0 square millimeters | 0 square millimeters | 0 square millimeters | 0 square millimeters | 0 square millimeters | 0 square millimeters | 0 square millimeters
5 | OA-Thr-DAla-cy[Dab-Dab-DPhe-Thr-Dab-Dab-Thr-] [NAB 738] | 0 square millimeters | 95 square millimeters | 154 square millimeters | 0 square millimeters | 0 square millimeters | 0 square millimeters | 133 square millimeters | 177 square millimeters | 0 square millimeters | – | 13 square millimeters | 0 square millimeters | 0 square millimeters | 0 square millimeters | 64 square millimeters
6 | OA-Ala-Thr-DSer-cy[Dab-Dab-DPhe-Leu-Dab-Dab-Thr-] [NAB 749] | 20 square millimeters | 154 square millimeters | 201 square millimeters | 20 square millimeters | 38 square millimeters | 133 square millimeters | 133 square millimeters | 177 square millimeters | 20 square millimeters | 20 square millimeters | 13 square millimeters | 20 square millimeters | 28 square millimeters | 113 square millimeters | 158 square millimeters
7 | OA-Thr-Dab-cy[Dab-Dab-DPhe-Leu-Abu-Dab-Thr-] [NAB 716] | 0 square millimeters | 0 square millimeters | 64 square millimeters | 0 square millimeters | 0 square millimeters | 13 square millimeters | 133 square millimeters | 165 square millimeters | 0 square millimeters | 0 square millimeters | 0 square millimeters | 0 square millimeters | 0 square millimeters | – | 64 square millimeters
8 | Polymyxin B nonapeptide [reference compound] | 0 square millimeters | 133 square millimeters | 154 square millimeters | 0 square millimeters | 0 square millimeters | 0 square millimeters | 20 square millimeters | 113 square millimeters | 113 square millimeters | 113 square millimeters | 154 square millimeters | 113 square millimeters | 177 square millimeters | 0 square millimeters | 0 square millimeters
